Assay results published in ChEMBL document CHEMBL3272135, “Quantitative relationships between steroid structure and binding to putative progesterone receptors” (J Med Chem, 1977).

Tests used:
[1] = target: T1, Progesterone receptor (Homo sapiens) (UniProt P06401)
T1 sequence (whole entry): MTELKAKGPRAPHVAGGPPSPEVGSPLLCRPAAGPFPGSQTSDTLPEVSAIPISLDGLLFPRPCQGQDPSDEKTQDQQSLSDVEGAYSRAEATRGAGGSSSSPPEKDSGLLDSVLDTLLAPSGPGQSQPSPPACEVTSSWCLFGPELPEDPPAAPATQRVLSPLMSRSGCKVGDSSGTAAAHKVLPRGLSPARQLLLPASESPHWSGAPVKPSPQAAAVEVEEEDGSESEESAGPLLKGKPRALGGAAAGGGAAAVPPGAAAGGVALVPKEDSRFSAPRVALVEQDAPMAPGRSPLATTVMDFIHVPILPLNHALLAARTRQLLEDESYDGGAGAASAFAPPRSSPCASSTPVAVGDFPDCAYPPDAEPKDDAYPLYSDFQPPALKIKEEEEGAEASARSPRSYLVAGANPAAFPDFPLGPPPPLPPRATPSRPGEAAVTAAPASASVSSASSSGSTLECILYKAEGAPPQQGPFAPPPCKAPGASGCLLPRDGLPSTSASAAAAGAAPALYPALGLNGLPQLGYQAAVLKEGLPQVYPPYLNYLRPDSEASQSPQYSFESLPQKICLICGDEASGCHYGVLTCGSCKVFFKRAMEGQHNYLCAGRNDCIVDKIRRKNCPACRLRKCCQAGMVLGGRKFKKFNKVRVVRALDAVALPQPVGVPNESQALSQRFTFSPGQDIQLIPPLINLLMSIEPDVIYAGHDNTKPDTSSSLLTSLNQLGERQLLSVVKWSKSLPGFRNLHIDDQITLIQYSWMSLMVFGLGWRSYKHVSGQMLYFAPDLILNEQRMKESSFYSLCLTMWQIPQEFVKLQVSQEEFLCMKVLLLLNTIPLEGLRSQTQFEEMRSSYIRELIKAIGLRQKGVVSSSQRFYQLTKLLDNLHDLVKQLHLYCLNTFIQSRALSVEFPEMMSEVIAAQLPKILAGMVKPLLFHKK

[2] = target: T2, Progesterone receptor (Ovis aries) (UniProt Q28590); assay: Relative binding affinity to sheep progesterone receptor
T2 sequence (whole entry): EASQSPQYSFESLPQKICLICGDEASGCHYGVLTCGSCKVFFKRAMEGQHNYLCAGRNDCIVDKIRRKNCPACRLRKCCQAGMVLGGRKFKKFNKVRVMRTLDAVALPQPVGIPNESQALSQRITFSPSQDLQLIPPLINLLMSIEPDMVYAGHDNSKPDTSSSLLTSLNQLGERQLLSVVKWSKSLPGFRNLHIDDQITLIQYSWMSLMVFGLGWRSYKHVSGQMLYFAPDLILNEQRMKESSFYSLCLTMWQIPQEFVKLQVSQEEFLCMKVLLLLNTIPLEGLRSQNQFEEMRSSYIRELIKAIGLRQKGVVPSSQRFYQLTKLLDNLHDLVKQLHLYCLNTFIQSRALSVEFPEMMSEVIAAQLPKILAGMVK

Cavia porcellus = organism: Cavia porcellus; assay: Relative binding affinity to guinea pig progesterone receptor
[3] = target: T3, Progesterone receptor (Oryctolagus cuniculus) (UniProt P06186); assay: Relative binding affinity to rabbit progesterone receptor
T3 sequence (whole entry): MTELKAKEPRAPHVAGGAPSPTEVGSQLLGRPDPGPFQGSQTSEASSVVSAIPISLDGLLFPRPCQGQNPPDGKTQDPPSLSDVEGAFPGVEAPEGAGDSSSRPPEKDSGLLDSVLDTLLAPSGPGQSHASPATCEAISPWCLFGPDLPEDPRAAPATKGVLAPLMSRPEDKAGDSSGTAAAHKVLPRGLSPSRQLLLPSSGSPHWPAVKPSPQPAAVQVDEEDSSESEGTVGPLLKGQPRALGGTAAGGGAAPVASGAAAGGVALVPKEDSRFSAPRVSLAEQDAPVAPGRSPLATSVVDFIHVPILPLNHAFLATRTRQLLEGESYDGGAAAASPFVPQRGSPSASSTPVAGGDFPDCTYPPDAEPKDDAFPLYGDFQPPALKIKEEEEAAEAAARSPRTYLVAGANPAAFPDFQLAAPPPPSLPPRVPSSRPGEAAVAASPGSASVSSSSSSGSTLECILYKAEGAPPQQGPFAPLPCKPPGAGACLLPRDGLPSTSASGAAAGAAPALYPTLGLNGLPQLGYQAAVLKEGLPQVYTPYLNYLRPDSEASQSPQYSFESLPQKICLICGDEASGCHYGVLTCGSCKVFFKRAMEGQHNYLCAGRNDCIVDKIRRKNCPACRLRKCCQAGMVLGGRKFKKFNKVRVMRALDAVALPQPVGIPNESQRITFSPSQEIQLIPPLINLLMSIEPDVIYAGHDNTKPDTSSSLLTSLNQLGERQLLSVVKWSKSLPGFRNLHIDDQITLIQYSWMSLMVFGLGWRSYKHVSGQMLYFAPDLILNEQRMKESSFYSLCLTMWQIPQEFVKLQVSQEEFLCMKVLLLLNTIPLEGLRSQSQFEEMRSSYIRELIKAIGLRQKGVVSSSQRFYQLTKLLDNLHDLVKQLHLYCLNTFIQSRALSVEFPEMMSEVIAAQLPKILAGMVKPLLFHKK

| SMILES | log(RBA) [1] | log(RBA) [2] | log(RBA) (Cavia porcellus) | log(RBA) [3] |
| --- | --- | --- | --- | --- |
| CC(=O)OCC(=O)[C@H]1CC[C@H]2[C@@H]3CCC4=CC(=O)CC[C@]4(C)[C@H]3CC[C@]12C | 1 | 1 | 1.34 | 1.69 |
| CC(=O)O[C@]1(C(C)=O)CC[C@H]2[C@@H]3C=C(Cl)C4=CC(=O)CC[C@]4(C)[C@H]3CC[C@@]21C | 2.08 | 1.78 | -0.097 | 2.16 |
| CC[C@@H]1C[C@H]2[C@@H]3C=CC4=CC(=O)CC[C@@H]4[C@H]3CC[C@]2(C)[C@H]1C(=O)CF | 2.15 | 2.13 | 1.17 | 2.24 |
| C#C[C@]1(O)CC[C@H]2[C@@H]3CC[C@H]4C[C@@H](O)CC[C@@H]4[C@H]3CC[C@@]21C | -0.7 | -1.3 | -2 | -0.52 |
| CC(=O)[C@@]1(C)CC[C@H]2[C@@H]3CCC4=CC(=O)CCC4=C3C=C[C@@]21C | – | – | – | 1.74 |
| C#C[C@]1(OC(C)=O)CC[C@H]2[C@@H]3CCC4=CC(=O)CC[C@@H]4[C@H]3CC[C@@]21C | 1.32 | 1.04 | 0.78 | 2.05 |
| C#C[C@]1(O)CC[C@H]2[C@@H]3CCC4=CC(=O)CCC4=C3C=C[C@@]21C | – | – | – | 1.3 |
| C#C[C@]1(O)CC[C@H]2[C@H]3[C@H](CC[C@@]21C)[C@H]1CCCC=C1C[C@H]3C | 0.3 | 0.301 | -0.7 | 0.954 |
| C=CC[C@]1(O)CC[C@H]2[C@@H]3CCC4=CCCC[C@@H]4[C@H]3CC[C@@]21C | 0.48 | 0.6 | -0.7 | 1.08 |
| C[C@]12CCC(=O)C=C1CC[C@@H]1[C@@H]2[C@@H](O)C[C@@]2(C)[C@H]1CC[C@]2(O)C(=O)CO | -1 | -1.3 | -1 | -1 |
| CC[C@]12CC[C@H]3[C@@H](CCC4=CC(=O)CC[C@@]43C)[C@@H]1CC[C@@H]2C(C)=O | 1.43 | 1.04 | 1.63 | 1.5 |
| C#C[C@]1(O)CC[C@H]2[C@@H]3CCC4=CC(=O)CC[C@@H]4[C@H]3CC[C@@]21CCC | – | – | – | 1.54 |
| C#C[C@]1(OC(C)=O)CC[C@H]2[C@@H]3CCC4=CCCC[C@@H]4[C@H]3CC[C@@]21C | -0.7 | -1 | -2 | 0 |
| C[C@@H](O)[C@H]1CC[C@H]2[C@@H]3CCC4=CC(=O)CC[C@]4(C)[C@H]3CC[C@]12C | 0.3 | 0 | 0 | 1.01 |
| CC(=O)[C@@]1(C)CC[C@H]2[C@@H]3CCC4=CC(=O)CC[C@@H]4[C@H]3CC[C@@]21C | – | – | – | 2.7 |
| CC(=O)[C@H]1CC[C@H]2[C@@H]3CCC4=CC(=O)CCC4=C3C=C[C@]12C | – | – | – | 1.3 |
| CC(=O)[C@H]1CC[C@H]2[C@@H]3CCC4=CC(=O)CCC4=C3CC[C@]12C | – | – | – | 2 |
| CCCCCC(=O)O[C@]1(C(C)=O)CC[C@H]2[C@@H]3CCC4=CC(=O)CC[C@]4(C)[C@H]3CC[C@@]21C | 1.88 | – | – | 1.88 |
| C[C@]12CC[C@H]3[C@@H](CCC4=CC(=O)CC[C@@]43C)[C@@H]1CC[C@@H]2O | – | 0 | 0 | -0.22 |
| C[C@]12CCC(=O)C[C@@H]1CC[C@@H]1[C@@H]2CC[C@]2(C)[C@@H](O)CC[C@@H]12 | 0.3 | 0 | – | – |
| C#C[C@]1(O)CC[C@H]2[C@@H]3CCC4=CC(=O)CCC4=C3C=C[C@@]21CCC | – | – | – | 0.7 |
| C#C[C@]1(O)CC[C@H]2[C@@H]3CCC4=CC(=O)CCC4=C3C=C[C@@]21CC | – | – | – | 1.3 |
| CC(=O)[C@@]1(C)CC[C@H]2[C@@H]3CCC4=CC(=O)CCC4=C3CC[C@@]21C | – | – | – | 2.3 |
| CC(=O)[C@H]1CC[C@H]2[C@@H]3CC=C4C[C@@H](O)CC[C@]4(C)[C@H]3CC[C@]12C | -0.69 | – | -0.52 | -0.301 |
| CCC(=O)[C@@]1(C)CC[C@H]2[C@@H]3CCC4=CC(=O)CCC4=C3CC[C@@]21C | – | – | – | 2.48 |
